Laboratory results reported in paper PMC7204524 (Tetrahedron, 2020).

Target: T1, T. brucei methionyl-tRNA synthetase (TbMetRS) (Trypanosoma brucei, UniProt Q38C91)
T1 sequence (Q38C91 1-773): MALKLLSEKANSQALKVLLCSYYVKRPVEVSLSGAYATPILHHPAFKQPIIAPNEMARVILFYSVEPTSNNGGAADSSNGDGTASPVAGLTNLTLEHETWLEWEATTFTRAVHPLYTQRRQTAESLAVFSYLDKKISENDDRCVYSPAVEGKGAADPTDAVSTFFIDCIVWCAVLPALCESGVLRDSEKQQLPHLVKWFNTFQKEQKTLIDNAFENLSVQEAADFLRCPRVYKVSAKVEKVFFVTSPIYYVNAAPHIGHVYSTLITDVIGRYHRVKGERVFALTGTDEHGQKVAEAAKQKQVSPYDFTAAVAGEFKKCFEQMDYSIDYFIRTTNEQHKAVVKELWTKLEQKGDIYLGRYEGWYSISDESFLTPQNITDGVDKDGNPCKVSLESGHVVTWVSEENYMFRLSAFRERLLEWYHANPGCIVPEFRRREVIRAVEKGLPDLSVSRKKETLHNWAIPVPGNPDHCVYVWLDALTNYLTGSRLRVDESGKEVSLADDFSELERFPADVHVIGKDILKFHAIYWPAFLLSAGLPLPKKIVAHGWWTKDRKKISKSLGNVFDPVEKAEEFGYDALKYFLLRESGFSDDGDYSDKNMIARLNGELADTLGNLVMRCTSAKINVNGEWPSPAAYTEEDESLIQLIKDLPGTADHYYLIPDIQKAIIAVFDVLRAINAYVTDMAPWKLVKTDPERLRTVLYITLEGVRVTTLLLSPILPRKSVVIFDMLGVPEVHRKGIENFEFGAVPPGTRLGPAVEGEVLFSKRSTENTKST
Experiment: colorimetric pyrophosphatase-coupled inhibition assay
Assay type: biochemical

Question: `C[C@@H](O)[C@@H]1C(=O)N(CCc2c[nH]c3ccccc23)CC[C@@H]1N(C)Cc1cc(Cl)cc(Cl)c1` (racemic) [14a, (3R,4S)-1-(2-(1H-Indol-3-yl)ethyl)-4-((3,5-dichlorobenzyl)(methyl)amino)-3-((R)-1-hydroxyethyl)piperidin-2-one] was tested. Which “%” value did it give?
Answer: 15–30 % inhibition at 200 μM
